These results are taken from patent US11084800B2 (Achillion Pharmaceuticals, Inc., priority 2017, dated 2021).

In this assay the target is Human Factor D (Homo sapiens (Human), UniProt P00746). Description: Human Factor D Assay. The note with it: Table 6; Factor D 80 nM, substrate Z-L-Lys-SBz; read-out: IC50. It counts as biochemical. Here is the method:
The assay of Example 10 was used to determine the IC50's of the compounds. Other standard factor D inhibition assays are also available.
Human Factor D (purified from human serum, Complement Technology, Inc.) at 80 nM final concentration is incubated with test compound at various concentrations for 5 min at room temperature in 50 mM Tris, 1M NaCl, pH 7.5. A synthetic substrate Z-L-Lys-SBz and DTNB (Ellman's reagent) are added to final concentrations of 100 μM each. Absorbance at 405 nm (A405) is recorded at 30 second intervals for 30 min using a microplate spectrophotometer. IC50 values are calculated by nonlinear regression of complement Factor D reaction rates as a function of test compound concentration.

Chain of Human Factor D (P00746 26-253): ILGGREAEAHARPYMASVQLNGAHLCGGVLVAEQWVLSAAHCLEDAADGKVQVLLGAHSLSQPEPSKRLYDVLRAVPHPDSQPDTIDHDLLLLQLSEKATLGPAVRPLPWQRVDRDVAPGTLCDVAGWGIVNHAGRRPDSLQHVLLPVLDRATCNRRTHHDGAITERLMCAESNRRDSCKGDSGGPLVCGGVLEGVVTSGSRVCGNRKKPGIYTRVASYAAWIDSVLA

For orientation: IC50 means the concentration needed to halve the response being measured. In the case of `CC(=O)c1nn(CC(=O)N2[C@H](C(=O)Nc3cccc(C(F)(F)F)n3)C[C@@]3(C)C[C@@H]23)c2c(C)cc(-c3cnc(C)nc3)cc12` [Compound 36, (1R,3S,5R)-2-(2-(3-Acetyl-7-methyl-5-(2-methylpyrimidin-5-yl)-1H-indazol-1-yl)acetyl)-5-methyl-N-(6-(trifluoromethyl)pyridin-2-yl)-2-azabicyclo[3.1.0]hexane-3-carboxamide], the IC50 was < 1000 nM.

`CC(=O)c1nn(CC(=O)N2[C@H](C(=O)Nc3cccc(OC(F)(F)F)n3)C[C@@]3(C)C[C@@H]23)c2c(C)cc(-c3cnc(C)nc3)cc12` [Compound 37, (1R,3S,5R)-2-(2-(3-Acetyl-7-methyl-5-(2-methylpyrimidin-5-yl)-1H-indazol-1-yl)acetyl)-5-methyl-N-(6-(trifluoromethoxy)pyridin-2-yl)-2-azabicyclo[3.1.0]hexane-3-carboxamide]: the IC50 is < 1000 nM.

Consider `CC(=O)c1nn(CC(=O)N2[C@H](C(=O)O)C[C@@]3(C)C[C@@H]23)c2ccc(-c3cnc(C)nc3)cc12` [Compound 40, (1R,3S,5R)-2-(2-(3-acetyl-5-(2-methylpyrimidin-5-yl)-1H-indazol-1-yl)acetyl)-5-methyl-2-azabicyclo[3.1.0]hexane-3-carboxylic acid], for which the IC50 is > 10000 nM.

In the case of `CC(=O)c1nn(CC(=O)N2C[C@H](F)C[C@H]2C(=O)Nc2cccc(Br)n2)c2c(C(=O)O)cc(-c3cnc(C)nc3)cc12` [Compound 41, 3-acetyl-1-(2-((2S,4R)-2-((6-bromopyridin-2-yl)carbamoyl)-4-fluoropyrrolidin-1-yl)-2-oxoethyl)-5-(2-methylpyrimidin-5-yl)-1H-indazole-7-carboxylic acid], the IC50 was < 1000 nM.

Consider `CNCC12CC1N(C(=O)Cn1nc(C(C)=O)c3cc(-c4cnc(C)nc4)ccc31)[C@H](C(=O)Nc1nc(Br)ccc1C)C2` (stereo partly drawn) [Compound 42, (3S)-2-(2-(3-acetyl-5-(2-methylpyrimidin-5-yl)-1H-indazol-1-yl)acetyl)-N-(6-bromo-3-methylpyridin-2-yl)-5-((methylamino)methyl)-2-azabicyclo[3.1.0]hexane-3-carboxamide], for which the IC50 is < 1000 nM.

For `CC(=O)NC[C@@]12C[C@@H]1N(C(=O)Cn1nc(C(C)=O)c3cc(-c4cnc(C)nc4)ccc31)[C@H](C(=O)Nc1cccc(Br)n1)C2` [Compound 43, (1S,3S,5S)-5-(Acetamidomethyl)-2-(2-(3-acetyl-5-(2-methylpyrimidin-5-yl)-1H-indazol-1-yl)acetyl)-N-(6-bromopyridin-2-yl)-2-azabicyclo[3.1.0]hexane-3-carboxamide], the IC50 was in the range of 1000 to 10000 nM.

As to `CC(=O)NC[C@@]12C[C@@H](C(=O)Nc3cccc(Br)n3)N(C(=O)Cn3nc(C(C)=O)c4cc(-c5cnc(C)nc5)ccc43)[C@@H]1C2` [Compound 44, (1R,3S,5R)-5-(Acetamidomethyl)-2-(2-(3-acetyl-5-(2-methylpyrimidin-5-yl)-1H-indazol-1-yl)acetyl)-N-(6-bromopyridin-2-yl)-2-azabicyclo[3.1.0]hexane-3-carboxamide], the IC50 is < 1000 nM.

Turning to `COC(=O)N[C@H](C(=O)NCC12CC1N(C(=O)Cn1nc(C(C)=O)c3cc(-c4cnc(C)nc4)ccc31)[C@H](C(=O)Nc1cccc(Br)n1)C2)C(C)C` (stereo partly drawn) [Compound 45, Methyl (2S)-1-(((3S)-2-(2-(3-acetyl-5-(2-methylpyrimidin-5-yl)-1H-indazol-1-yl)acetyl)-3-(6-bromopyridin-2-ylcarbamoyl)-2-azabicyclo[3.1.0]hexan-5-yl)methylamino)-3-methyl-1-oxobutan-2-ylcarbamate], the IC50 was < 1000 nM.

For the molecule `CC(=O)c1nn(CC(=O)N2[C@H](C(=O)Nc3ccc(F)c(Br)n3)C[C@@]3(C)C[C@@H]23)c2c(C)cc(-c3cnc(C)nc3)cc12` [Compound 46, (1R,3S,5R)-2-(2-(3-acetyl-7-methyl-5-(2-methylpyrimidin-5-yl)-1H-indazol-1-yl)acetyl)-N-(6-bromo-5-fluoropyridin-2-yl)-5-methyl-2-azabicyclo[3.1.0]hexane-3-carboxamide], the IC50 was < 1000 nM.

Consider `CCc1cc(-c2cnc(C)nc2)cc2c(C(C)=O)nn(CC(=O)N3[C@H](C(=O)Nc4nc(Br)ccc4C)C[C@@]4(C)C[C@@H]34)c12` [Compound 47, (1R,3S,5R)-2-(2-(3-Acetyl-7-ethyl-5-(2-methylpyrimidin-5-yl)-1H-indazol-1-yl)acetyl)-N-(6-bromo-3-methylpyridin-2-yl)-5-methyl-2-azabicyclo[3.1.0]hexane-3-carboxamide], for which the IC50 was < 1000 nM.

On to `COCc1ccc(Br)c(NC(=O)[C@@H]2CC3(CNC(=O)[C@@H](NC(=O)OC)C(C)C)CC3N2C(=O)Cn2nc(C(C)=O)c3cc(-c4cnc(C)nc4)ccc32)n1` (stereo partly drawn) [Compound 48, methyl ((2S)-1-((((3S)-2-(2-(3-acetyl-5-(2-methylpyrimidin-5-yl)-1H-indazol-1-yl)acetyl)-3-((3-bromo-6-(methoxymethyl)pyridin-2-yl)carbamoyl)-2-azabicyclo[3.1.0]hexan-5-yl)methyl)amino)-3-methyl-1-oxobutan-2-yl)carbamate], for which the IC50 is > 10000 nM.

Take `CC(=O)c1nn(CC(=O)N2[C@H](C(=O)Nc3nc(Br)ccc3C)C[C@@]3(C)C[C@@H]23)c2c(C)cc(-c3cnc(C)[n+]([O-])c3)cc12` [Compound 50, 5-(3-Acetyl-1-(2-((1R,3S,5R)-3-(6-bromo-3-methylpyridin-2-ylcarbamoyl)-5-methyl-2-azabicyclo[3.1.0]hexan-2-yl)-2-oxoethyl)-7-methyl-1H-indazol-5-yl)-2-methylpyrimidine 1-oxide]: the IC50 was < 1000 nM.

As for `Cc1ncc(-c2ccc3c(c2)c(C(N)=O)nn3CC(=O)N2C[C@H]3C[C@H]3[C@H]2C(=O)Nc2nc(Br)ccc2C)cn1` [Compound 56, 1-(2-((1R,2S,5S)-2-((6-Bromo-3-methylpyridin-2-yl)carbamoyl)-3-azabicyclo[3.1.0]hexan-3-yl)-2-oxoethyl)-5-(2-methylpyrimidin-5-yl)-1H-indazole-3-carboxamide], the IC50 is < 1000 nM.

As to `Cc1ncc(-c2cc(C)c3c(c2)c(C(N)=O)nn3CC(=O)N2[C@H](C(=O)Nc3nc(Br)ccc3C)C[C@@]3(C)C[C@@H]23)cn1` [Compound 57, 1-(2-((1R,3S,5R)-3-((6-Bromo-3-methylpyridin-2-yl)carbamoyl)-5-methyl-2-azabicyclo[3.1.0]hexan-2-yl)-2-oxoethyl)-7-methyl-5-(2-methylpyrimidin-5-yl)-1H-indazole-3-carboxamide], the IC50 is < 1000 nM.

For `Cc1ncc(-c2cc(C)c3c(c2)c(C(N)=O)nn3CC(=O)N2[C@H](C(=O)Nc3cccc(Br)n3)C[C@@]3(C)C[C@@H]23)cn1` [Compound 58, 1-(2-((1R,3S,5R)-3-((6-Bromopyridin-2-yl)carbamoyl)-5-methyl-2-azabicyclo[3.1.0]hexan-2-yl)-2-oxoethyl)-7-methyl-5-(2-methylpyrimidin-5-yl)-1H-indazole-3-carboxamide], the IC50 is < 1000 nM.

Turning to `CC(=O)c1nn(CC(=O)N2C[C@H](F)C[C@H]2C(=O)Nc2nc(Br)ccc2CC(=O)O)c2ccc(-c3cnc(C)nc3)cc12` [Compound 62, 2-(2-((2S,4R)-1-(2-(3-Acetyl-5-(2-methylpyrimidin-5-yl)-1H-indazol-1-yl)acetyl)-4-fluoropyrrolidine-2-carboxamido)-6-bromopyridin-3-yl)acetic Acid], the IC50 is < 1000 nM.
